These results are taken from ChEMBL document CHEMBL4732069, “Singly and doubly modified analogues of C20-epi-salinomycin: A new group of antiparasitic agents against Trypanosoma brucei” (Eur J Med Chem, 2021).

The source made the active and inactive calls. The rule behind the calls is not given here.

The subject of data set [1] is Trypanosoma brucei brucei. As to the kind of experiment: Antitrypanosomal activity against Trypanosoma brucei brucei S427 by resazurin dye based fluorescence assay. In kind it is functional. Background: Alamar Blue is a resazurin reagent that responds to reducing activity.
Data set [2] in a line: Selectivity index, ratio of GI50 for human HL-60 cells to GI50 for antitrypanosomal activity against Trypanosoma brucei brucei S427. In kind it is toxicity. Conditions: read-out: RatioGI50.
Data set [3] is described as follows: Cytotoxicity against human HL-60 cells by resazurin dye based fluorescence assay. In kind it is cell-based.
The subject of data set [4] is Trypanosoma brucei brucei. As to the kind of experiment: Antitrypanosomal activity against Trypanosoma brucei brucei assessed as cell swelling. In kind it is functional, organism-based.

On to `CCOC(=O)O[C@H]1C=C[C@]2(O[C@H]([C@@H](CC)C(=O)[C@@H](C)[C@@H](O)[C@H](C)[C@@H]3O[C@@H]([C@@H](CC)C(=O)O)CC[C@@H]3C)[C@@H](C)C[C@H]2C)O[C@@]12CC[C@@](C)([C@H]1CC[C@](O)(CC)[C@H](C)O1)O2`, for which the results for the GI50 in data set [1] and in data set [3] were 0.2 µM and 12.6 µM, respectively. The selectivity ratio in data set [2] came to 293. Moreover, the outcome in data set [4] was Active.

Turning to `C#CCNC(=O)[C@H](CC)[C@H]1CC[C@H](C)[C@H]([C@@H](C)[C@H](O)[C@H](C)C(=O)[C@H](CC)[C@H]2O[C@]3(C=C[C@H](OC(C)=O)[C@]4(CC[C@@](C)([C@H]5CC[C@](O)(CC)[C@H](C)O5)O4)O3)[C@H](C)C[C@@H]2C)O1`, the 50% growth inhibitory concentration (GI50) – broadly, the concentration that inhibits growth by half – in data set [1] is 20.9 µM; in data set [3] it was 39.8 µM. In data set [2], the selectivity ratio was 2.

Regarding `Cc1ccc(C(=O)Nc2ccc(S(=O)(=O)O)c3cc(S(=O)(=O)O)cc(S(=O)(=O)O)c23)cc1NC(=O)c1cccc(NC(=O)Nc2cccc(C(=O)Nc3cc(C(=O)Nc4ccc(S(=O)(=O)O)c5cc(S(=O)(=O)O)cc(S(=O)(=O)O)c45)ccc3C)c2)c1` [SURAMIN], the GI50 in data set [1] is 0.058 µM; in data set [3], over 100 µM. The selectivity ratio in data set [2] is over 1720.

For the compound `CC[C@@H](C(=O)[C@@H](C)[C@@H](O)[C@H](C)[C@@H]1O[C@@H]([C@@H](CC)C(=O)O)CC[C@@H]1C)[C@H]1O[C@]2(C=C[C@@H](O)[C@]3(CC[C@@](C)([C@H]4CC[C@](O)(CC)[C@H](C)O4)O3)O2)[C@H](C)C[C@@H]1C` [SALINOMYCIN], the GI50 in data set [1] amounted to 0.3 µM; in data set [3] it was 50.5 µM. The selectivity ratio in data set [2] came out at 168. Moreover, the outcome in data set [4] was Active.

As to `C#CCOC(=O)[C@H](CC)[C@H]1CC[C@H](C)[C@H]([C@@H](C)[C@H](O)[C@H](C)C(=O)[C@H](CC)[C@H]2O[C@]3(C=C[C@H](OC(=O)OCC)[C@]4(CC[C@@](C)([C@H]5CC[C@](O)(CC)[C@H](C)O5)O4)O3)[C@H](C)C[C@@H]2C)O1`, the values for the concentration for 50% growth inhibition (GI50) in data set [1] and in data set [3] were 15 µM and over 100 µM, respectively. Further, the selectivity ratio in data set [2] is over 312.

As for `CC[C@@H](C(=O)[C@@H](C)[C@@H](O)[C@H](C)[C@@H]1O[C@@H]([C@@H](CC)C(=O)O)CC[C@@H]1C)[C@H]1O[C@]2(C=C[C@H](OC(=O)Nc3ccccc3)[C@]3(CC[C@@](C)([C@H]4CC[C@](O)(CC)[C@H](C)O4)O3)O2)[C@H](C)C[C@@H]1C`, the GI50 in data set [1] came out at 3.15 µM; in data set [3], 57.2 µM. For the same compound, in data set [2], the selectivity ratio is 18.2.

Regarding `C#CCNC(=O)[C@H](CC)[C@H]1CC[C@H](C)[C@H]([C@@H](C)[C@H](O)[C@H](C)C(=O)[C@H](CC)[C@H]2O[C@]3(C=C[C@H](OC(=O)OCC)[C@]4(CC[C@@](C)([C@H]5CC[C@](O)(CC)[C@H](C)O5)O4)O3)[C@H](C)C[C@@H]2C)O1`, the GI50 turned out to be 13.8 µM in data set [1] and 61.8 µM in data set [3]. The selectivity ratio in data set [2] amounted to 106.

For `CC[C@@H](C(=O)[C@@H](C)[C@@H](O)[C@H](C)[C@@H]1O[C@@H]([C@@H](CC)C(=O)O)CC[C@@H]1C)[C@H]1O[C@]2(C=C[C@H](OC(=O)c3ccccc3)[C@]3(CC[C@@](C)([C@H]4CC[C@](O)(CC)[C@H](C)O4)O3)O2)[C@H](C)C[C@@H]1C`, the GI50 in data set [1] was determined as 0.34 µM; in data set [3] it was 13.5 µM. Besides, the selectivity ratio in data set [2] amounted to 67.5.

As to `CC[C@@H](C(=O)[C@@H](C)[C@@H](O)[C@H](C)[C@@H]1O[C@@H]([C@@H](CC)C(=O)O)CC[C@@H]1C)[C@H]1O[C@]2(C=C[C@H](OC(=O)C(C)C)[C@]3(CC[C@@](C)([C@H]4CC[C@](O)(CC)[C@H](C)O4)O3)O2)[C@H](C)C[C@@H]1C`, the GI50 amounted to 0.036 µM in data set [1] and 21.6 µM in data set [3]. For the same compound, the selectivity ratio in data set [2] is 90.

Take `C#CCOC(=O)[C@H](CC)[C@H]1CC[C@H](C)[C@H]([C@@H](C)[C@H](O)[C@H](C)C(=O)[C@H](CC)[C@H]2O[C@]3(C=C[C@H](OC(C)=O)[C@]4(CC[C@@](C)([C@H]5CC[C@](O)(CC)[C@H](C)O5)O4)O3)[C@H](C)C[C@@H]2C)O1`: the GI50 in data set [1] was 22.4 µM; in data set [3], over 100 µM. The selectivity ratio in data set [2] is 123.

On to `CC[C@@H](C(=O)[C@@H](C)[C@@H](O)[C@H](C)[C@@H]1O[C@@H]([C@@H](CC)C(=O)O)CC[C@@H]1C)[C@H]1O[C@]2(C=C[C@H](OC(=O)Oc3ccccc3)[C@]3(CC[C@@](C)([C@H]4CC[C@](O)(CC)[C@H](C)O4)O3)O2)[C@H](C)C[C@@H]1C`, for which the GI50 in data set [1] came out at 0.22 µM; in data set [3], 23.4 µM. Further, the selectivity ratio in data set [2] came out at 106.

`CC[C@@H](C(=O)[C@@H](C)[C@@H](O)[C@H](C)[C@@H]1O[C@@H]([C@@H](CC)C(=O)O)CC[C@@H]1C)[C@H]1O[C@]2(C=C[C@H](OC(C)=O)[C@]3(CC[C@@](C)([C@H]4CC[C@](O)(CC)[C@H](C)O4)O3)O2)[C@H](C)C[C@@H]1C`: the concentration for 50% growth inhibition (GI50) in data set [1] was 0.043 µM; in data set [3], 52.5 µM. Further, the selectivity ratio in data set [2] is 21.2.

Take `CCCCCCCCCC(=O)O[C@H]1C=C[C@]2(O[C@H]([C@@H](CC)C(=O)[C@@H](C)[C@@H](O)[C@H](C)[C@@H]3O[C@@H]([C@@H](CC)C(=O)O)CC[C@@H]3C)[C@@H](C)C[C@H]2C)O[C@@]12CC[C@@](C)([C@H]1CC[C@](O)(CC)[C@H](C)O1)O2`: the values for the GI50 in data set [1] and in data set [3] were 2.48 µM and 5.97 µM, respectively. The selectivity ratio in data set [2] was 165. For the same compound, the outcome in data set [4] was Active.

Consider `CC[C@@H](C(=O)[C@@H](C)[C@@H](O)[C@H](C)[C@@H]1O[C@@H]([C@@H](CC)C(=O)ONC(=O)c2ccccc2O)CC[C@@H]1C)[C@H]1O[C@]2(C=C[C@H](O)[C@]3(CC[C@@](C)([C@H]4CC[C@](O)(CC)[C@H](C)O4)O3)O2)[C@H](C)C[C@@H]1C`, for which the figures for the GI50 in data set [1] and in data set [3] were 2.81 µM and 33.2 µM, respectively. The selectivity ratio in data set [2] worked out at 11.8.

In the case of `CCNC(=O)N(CC)C(=O)O[C@H]1C=C[C@]2(O[C@H]([C@@H](CC)C(=O)[C@@H](C)[C@@H](O)[C@H](C)[C@@H]3O[C@@H]([C@@H](CC)C(=O)O)CC[C@@H]3C)[C@@H](C)C[C@H]2C)O[C@@]12CC[C@@](C)([C@H]1CC[C@](O)(CC)[C@H](C)O1)O2`, the concentration for 50% growth inhibition (GI50) came to 0.027 µM in data set [1] and 9.54 µM in data set [3]. The selectivity ratio in data set [2] was found to be 353. Also, in data set [4], the outcome was Active.

On to `CC[C@@H](C(=O)[C@@H](C)[C@@H](O)[C@H](C)[C@@H]1O[C@@H]([C@@H](CC)C(=O)O)CC[C@@H]1C)[C@H]1O[C@]2(C=C[C@H](O)[C@]3(CC[C@@](C)([C@H]4CC[C@](O)(CC)[C@H](C)O4)O3)O2)[C@H](C)C[C@@H]1C`, for which the concentration for 50% growth inhibition (GI50) in data set [1] was found to be 8.49 µM; in data set [3] it was 393 µM. Also, in data set [2], the selectivity ratio came out at 4.6. Moreover, the outcome in data set [4] was inactive.
